Measured values reported in patent US20100247579A1, “THERAPEUTIC AGENT FOR CANCER” (priority 2007, published 2010).
Where a name gives a salt, the structure may show the parent alone. Read-outs that look alike come from different tables or passages of the source.

Columns and labels:
[1] = test system: lymphocytes derived from cancer patient No. PT009 expanded with OKT3 and CH-296; assay: Resistance to anticancer agents, WST-1 GI50 on cultured lymphocytes of cancer patient No. PT009; type: cell-based, human; conditions: day 10 of culture with OKT3 and CH-296, 20 hours with drug
Procedure: After that, the suspension was stained by the trypan blue staining method to calculate the viable cell count, and then subjected to each experiment.
(§1) On the other hand, the IL-2/5HRPMI was added to the control group in 50 μL/well each.
(§2) These culture plates were incubated at 37° C. for 20 hours in the presence of 5% CO2. After the incubation, WST-1 (Premix WST-1 Cell Proliferation Assay System, manufactured by Takara Bio Inc.) was added in 20 μL/well each to each well of the plate, and incubated in the presence of 5% CO2 at 37° C. for 4 hours. The plates after the incubation were centrifuged at 500×g at room temperature for 5 minutes. After the centrifugation, 100 μL of the supernatant was collected from each well, and the absorbance was measured at an absorption wavelength of 450 nm and a control wavelength of 630 nm [hereinafter referred to as the absorbance (450 nm-630 nm)] using a microplate reader (manufactured by Bio-Rad Laboratories, Inc., Model Number 680XR), and then the specific absorbance (450 nm-630 nm) was calculated according to the following formula.
(§3) Specific absorbance (450 nm-630 nm)=Absorbance of Test Cell Addition Group (450 nm-630 nm)−Absorbance of Control Group (450 nm-630 nm) Formula 2: […]

[2] = test system: expanded lymphocytes derived from a human healthy donor; assay: Resistance to anticancer agents, WST-1 GI50 on cultured lymphocytes of a human healthy donor; type: cell-based; conditions: for GI50: Homo sapiens, Lymphocyte
Procedure: as §1, §2, §3
Here, a group where only OKT3 was immobilized to the culture equipment in the expansion of the lymphocytes was also set.
However, in the case of paclitaxel, a human AB type serum was used as a solvent for dilution, and for other drugs, 5HRPMI was used for dilution.

GI50 ([1]; Homo sapiens, Lymphocyte, read-out: GI50) [µg/mL]	Compound	GI50 [1] [µg/mL]	GI50 (μg/mL) Initial Stimulation OKT3 + CH-296 ([2]; healthy donor lymphocytes expanded with OKT3 + CH-296) [µg/mL]	GI50 (μg/mL) Initial Stimulation OKT3 ([2]; healthy donor lymphocytes expanded with OKT3 alone) [µg/mL]	GI50 ([2]; healthy donor lymphocytes expanded with OKT3 + CH-296, read-out: GI50 (μg/mL) Initial Stimulation OKT3 + CH-296) [µg/mL]	GI50 ([2]; healthy donor lymphocytes expanded with OKT3 alone, read-out: GI50 (μg/mL) Initial Stimulation OKT3) [µg/mL]
–	N.N.O=C([O-])C1(C(=O)[O-])CCC1.[Pt+2] [Carboplatin, carboplatin]	215.5	161.31	116.16	–	–
–	N.N.[Cl][Pt][Cl] [Cisplatin, cisplatin]	3.7	–	–	–	–
0.5	COc1cccc2c1C(=O)c1c(O)c3c(c(O)c1C2=O)C[C@@](O)(C(=O)CO)C[C@@H]3O[C@H]1C[C@H](N)[C@H](O)[C@H](C)O1 [Doxorubicin Hydrochloride, doxorubicin hydrochloride]	–	–	–	0.41	0.25
